According to patent publication US9884832B2 (priority 2011, dated 2018):

These compounds were tested against AM2 S31N (serine→asparagine mutation at residue 31 in the M2 protein) (Influenza A virus, UniProt P0DOF5, S31N). Settings: not given.
Assay type: cell-based, influenza virus A/Udorn/72

Compound | S31N OOcyte Inhibition at 100 uM (%)
c1csc(-c2ccc(CNC34CC5CC(CC(C5)C3)C4)nc2)c1 [Example 55a, Adamantan-1-yl-(5-thiophen-2-yl-pyridin-2-ylmethyl)-amine] | A (key: (A)=31-95%; (B)=0-30%)
c1csc(-c2ccc(CNC34CC5CC(CC(C5)C3)C4)cn2)c1 [Example 58a, N-((6-(thiophen-2-yl)pyridin-3-yl)methyl)adamantan-1-amine] | A (key: (A)=31-95%; (B)=0-30%)
c1cc(-c2ccc(CNC34CC5CC(CC(C5)C3)C4)cn2)cs1 [Example 59a, N-((6-(thiophen-3-yl)pyridin-3-yl)methyl)adamantan-1-amine] | A (key: (A)=31-95%; (B)=0-30%)
c1ccc(-c2ncc(CNC34CC5CC(CC(C5)C3)C4)cn2)cc1 [Example 63a, N-((2-phenylpyrimidin-5-yl)methyl)adamantan-1-amine] | A (key: (A)=31-95%; (B)=0-30%)
c1ccc(-c2ncc(CNC34CC5CC(CC(C5)C3)C4)cn2)nc1 [Example 64a, N-((2-(pyridin-2-yl)pyrimidin-5-yl)methyl)adamantan-1-amine] | B (key: (A)=31-95%; (B)=0-30%)
Cc1ccc(CNC23CC4CC(CC(C4)C2)C3)o1 [Example 67a] | A (key: (A)=31-95%; (B)=0-30%)
c1c[nH]c(CNC23CC4CC(CC(C4)C2)C3)c1 [Example 72a, Adamantan-1-yl-(1H-pyrrol-2-ylmethyl)-amine] | B (key: (A)=31-95%; (B)=0-30%)
c1nc(CNC23CC4CC(CC(C4)C2)C3)no1 [Example 73a, Adamantan-1-yl-[1,2,4]oxadiazol-3-ylmethyl-amine] | A (key: (A)=31-95%; (B)=0-30%)
CC(C)c1csc(CNC23CC4CC(CC(C4)C2)C3)n1 [Example 84a, N-((4-isopropylthiazol-2-yl)methyl)adamantan-1-amine] | B (key: (A)=31-95%; (B)=0-30%)
CC(C)n1cc(CNC23CC4CC(CC(C4)C2)C3)cn1 [Example 85a, N-((1-isopropyl-1H-pyrazol-4-yl)methyl)adamantan-1-amine] | B (key: (A)=31-95%; (B)=0-30%)
CSc1ccc(CNC23CC4CC(CC(C4)C2)C3)s1 [Example 90a] | A (key: (A)=31-95%; (B)=0-30%)

Same assay, conditions: pH 5.5

Compound | S31N OOcyte Inhibition at 100 uM (%)
c1nc(N2CCCC2)ncc1CNC12CC3CC(CC(C3)C1)C2 [Example 54b, N-((2-(pyrrolidin-1-yl)pyrimidin-5-yl)methyl)adamantan-1-amine] | A (key: (A)=31-95%; (B)=0-30%)
COc1ncc(CNC23CC4CC(CC(C4)C2)C3)cn1 [Example 55b, N-((2-methoxypyrimidin-5-yl)methyl)adamantan-1-amine] | A (key: (A)=31-95%; (B)=0-30%)
CCSc1ncc(CNC23CC4CC(CC(C4)C2)C3)cn1 [Example 56b, N-((2-(ethylthio)pyrimidin-5-yl)methyl)adamantan-1-amine] | A (key: (A)=31-95%; (B)=0-30%)
c1nc(N2CCOCC2)ncc1CNC12CC3CC(CC(C3)C1)C2 [Example 57b, N-((2-morpholinopyrimidin-5-yl)methyl)adamantan-1-amine] | A (key: (A)=31-95%; (B)=0-30%)
c1nc(N2CCCCC2)ncc1CNC12CC3CC(CC(C3)C1)C2 [Example 58b, N-((2-(piperidin-1-yl)pyrimidin-5-yl)methyl)adamantan-1-amine] | A (key: (A)=31-95%; (B)=0-30%)
CN(C)c1ncc(CNC23CC4CC(CC(C4)C2)C3)cn1 [Example 59b, N-((2-dimethylaminopyrimidin-5-yl)methyl)adamantan-1-amine] | A (key: (A)=31-95%; (B)=0-30%)
CCOC(=O)CN(C)c1ncc(CNC23CC4CC(CC(C4)C2)C3)cn1 [Example 60b, N-((2-methyl(ethylcarboxymethyl)aminopyrimidin-5-yl)methyl)adamantan-1-amine] | A (key: (A)=31-95%; (B)=0-30%)
c1nc(C2CCCCC2)ncc1CNC12CC3CC(CC(C3)C1)C2 [Example 61b, N-((2-cyclohexylpyrimidin-5-yl)methyl)adamantan-1-amine] | A (key: (A)=31-95%; (B)=0-30%)
CCCSc1ncc(CNC23CC4CC(CC(C4)C2)C3)cn1 [Example 62b, N-((2-propylthiopyrimidin-5-yl)methyl)adamantan-1-amine] | A (key: (A)=31-95%; (B)=0-30%)
Cc1cccc(-c2ncc(CNC34CC5CC(CC(C5)C3)C4)cn2)c1 [Example 63b, N-((2-mtolylpyrimidin-5-yl)methyl)adamantan-1-amine] | A (key: (A)=31-95%; (B)=0-30%)
COc1ncc(CNC23CC4CC(CC(C4)C2)C3)c(OC)n1 [Example 64b, N-((2,4-dimethoxypyrimidin-5-yl)methyl)adamantan-1-amine] | B (key: (A)=31-95%; (B)=0-30%)
c1nc(CNC23CC4CC(CC(C4)C2)C3)sc1C1CC1 [Example 65b, Adamantan-1-yl-(5-cyclopropyl-thiazol-2-ylmethyl)-amine] | A (key: (A)=31-95%; (B)=0-30%)
CSc1ccccc1-c1ccc(CNC23CC4CC(CC(C4)C2)C3)cc1 [Example 66b, Adamantan-1-yl-(2′-methylsulfanyl-biphenyl-4-ylmethyl)-amine] | A (key: (A)=31-95%; (B)=0-30%)
CSc1ccccc1-c1ccc(CNC23CC4CC(CC(C4)C2)C3)nc1 [Example 67b, Adamantan-1-yl-[5-(2-methylsulfanyl-phenyl)-pyridin-2-ylmethyl]-amine] | A (key: (A)=31-95%; (B)=0-30%)
Cc1csc(CNC23CC4CC(CC(C4)C2)C3)n1 [Example 68b, Adamantan-1-yl-(4-methyl-thiazol-2-ylmethyl)-amine] | A (key: (A)=31-95%; (B)=0-30%)
COc1ccccc1-c1ccc(CNC23CC4CC(CC(C4)C2)C3)nc1 [Example 69b, Adamantan-1-yl-[5-(2-methoxy-phenyl)-pyridin-2-ylmethyl]-amine] | A (key: (A)=31-95%; (B)=0-30%)

Compound | S31N OOcyte Inhibition at 100 uM (%)
Clc1ccc(CNC23CC4CC(CC(C4)C2)C3)nn1 [Example 70b, Adamantan-1-yl-(6-chloro-pyridazin-3-ylmethyl)-amine] | B (key: (A)=31-95%; (B)=0-30%)
c1csc(-c2ccc(CNC34CC5CC(CC(C5)C3)C4)nn2)c1 [Example 71b, Adamantan-1-yl-(6-thiophen-2-yl-pyridazin-3-ylmethyl)-amine] | A (key: (A)=31-95%; (B)=0-30%)
Clc1ccccc1-c1ccc(CNC23CC4CC(CC(C4)C2)C3)nc1 [Example 72b, Adamantan-1-yl-[5-(2-chloro-phenyl)-pyridin-2-ylmethyl]-amine] | A (key: (A)=31-95%; (B)=0-30%)
C[Si](C)(C)c1ccc(CNC23CC4CC(CC(C4)C2)C3)s1 [Example 75b, Adamantan-1-yl-(5-trimethylsilanyl-thiophen-2-ylmethyl)-amine] | A (key: (A)=31-95%; (B)=0-30%)
CSc1ccccc1-c1cnc(CNC23CC4CC(CC(C4)C2)C3)s1 [Example 76b, Adamantan-1-yl-[5-(2-methylsulfanyl-phenyl)-thiazol-2-ylmethyl]-amine] | A (key: (A)=31-95%; (B)=0-30%)
c1cc2nc(CNC34CC5CC(CC(C5)C3)C4)sc2s1 [Example 77b, Adamantan-1-yl-thieno[3,2-d]thiazol-2-ylmethyl-amine] | A (key: (A)=31-95%; (B)=0-30%)
c1cc2[nH]c(CNC34CC5CC(CC(C5)C3)C4)cc2o1 [Example 78b, Adamantan-1-yl-(4H-furo[3,2-b]pyrrol-5-ylmethyl)-amine] | A (key: (A)=31-95%; (B)=0-30%)
COc1ccc2nc(CNC34CC5CC(CC(C5)C3)C4)[nH]c2c1 [Example 79b, Adamantan-1-yl-(6-methoxy-1H-benzoimidazol-2-ylmethyl)-amine] | A (key: (A)=31-95%; (B)=0-30%)
c1cnc2[nH]c(CNC34CC5CC(CC(C5)C3)C4)nc2c1 [Example 82b, N-((3H-imidazo[4,5-b]pyridin-2-yl)methyl)adamantan-1-amine] | A (key: (A)=31-95%; (B)=0-30%)
OC12CC3CC(C1)CC(NCc1noc(-c4ccccc4)n1)(C3)C2 [Example 84b, (1s,3r,5R,7S)-3-(((5-phenyl-1,2,4-oxadiazol-3-yl)methyl)amino)adamantan-1-61] | A (key: (A)=31-95%; (B)=0-30%)
CC(C)c1cc(CNC23CC4CC(CC(O)(C4)C2)C3)no1 [Example 85b, (1s,3r,5R,7S)-3-(((5-isopropylisoxazol-3-yl)methyl)amino)adamantan-1-61] | A (key: (A)=31-95%; (B)=0-30%)
OC12CC3CC(C1)CC(NCc1noc(C4CCCCC4)n1)(C3)C2 [Example 86b, (1s,3r,5R,7S)-3-(((5-cyclohexyl-1,2,4-oxadiazol-3-yl)methyl)amino)adamantan-1-ol] | A (key: (A)=31-95%; (B)=0-30%)
O=C(CNC12CC3CC(CC(C3)C1)C2)c1cccs1 [Example 87b, 2-(adamantan-1-ylamino)-1-(thiophen-2-yl)ethanone] | B (key: (A)=31-95%; (B)=0-30%)
C(#Cc1cccs1)CNC12CC3CC(CC(C3)C1)C2 [Example 88b] | A (key: (A)=31-95%; (B)=0-30%)
CSc1ccc(-c2cc(CNC34CC5CC(CC3C5)C4)no2)cc1 [Example 90b, (2R,3as,5S,6as)-N-((5-(4-(methylthio)phenyl)isoxazol-3-yl)methyl)octahydro-2,5-methanopentalen-3a-amine] | A (key: (A)=31-95%; (B)=0-30%)
